Experiments:
[1] = tested on: nail fungus (onychomycosis); experiment: Repeated topical application of pure allicin on infected toenails of volunteers; assay type: in vivo
Description: In this preliminary study, the effect of repeated topical application of pure allicin on an infected nail was examined. The study was performed on a group of 10 volunteers infected with nail fungus (onychomycosis), wherein only toenails showing visible signs of being infected with a nail fungus were chosen for the topical treatment. […] The allicin solution was kept at 4° C. in citrate buffer pH 6.0 containing 1 M urea in a dark flask. A round cotton pad was cut in the approximate dimensions and size of the infected toenail (1.3 cm diameter×0.3 cm thick). 0.5 ml of the allicin solution was slowly delivered with a pipette to the surface of the cotton pad and the wet cotton pad was placed on the nail, taking precaution so as not to touch the skin surrounding the nail. The toe with the cotton pad was then covered overnight with a strip made of nylon to secure the pad on the nail and to prevent the spread of the volatile smelly odor of allicin. This treatment was repeated every night for 14 days. […] The treatment was then repeated once a week until all the infected regions of the old nail were cut off.

[2] = target: various microorganisms; experiment: Sensitivity tests of microorganisms to pure allicin and to allicin from dry alliin/alliinase mixtures (liquid culture, disk filters on agar, tampons); assay type: cell-based; details: for LD50: range over the various microorganisms tested
Description: In this experiment, the effect of allicin released upon wetting of the medicated tampons on various microorganisms, kindly provided by Dr. N. Keller from the clinical microbiology laboratory of the Sheba Medical Center (Tel HaShomer, Israel), was tested. The list of microorganisms included various types of yeasts, in particular, Saccharomyces cerevisiae, Candida albicans and Candida Glabrata; and several types of bacteria, in particular, group B Streptococci, methicillin-resistant Staphylococcus aureus (MRSA) and vancomycin-intermediate Staphylococcus aureus (VISA). In addition, two strains of Trichomonas vaginalis, one adherent to the plastic of the tube and the other non-adherent, were tested.
In addition, various mixtures of dry alliin and dry alliinase were placed inside the cleft of vaginal tampons to yield different amounts of allicin in tubes containing liquid medium with bacteria or yeasts, wherein following overnight incubation, aliquots were taken from the tubes and plated on nutrient agar plates, and the number of colonies developed was determined in comparison to untreated controls. The effects of allicin on Trichomonas vaginalis was tested in liquid cultures, and the viability of the trophozoites after exposure to different concentrations of allicin was determined by the methylene blue vital dye exclusion as previously described (Kiernan, 1974).
Dry glass fiber filters on which a solution containing 5, 20 or 30 μg of pure allicin was dripped just before placing on the seeded agar served as standards, and dry glass fiber filters that were placed on the seeded agar were used as controls.

[3] = tested on: Trichomonas vaginalis; experiment: In vitro growth of Trichomonas vaginalis trophozoites with pure allicin (hemacytometer count); assay type: cell-based; details: 24 hours, 37° C.
Description: The effect of allicin on the different microorganisms was tested in (i) sensitivity tests to different concentrations of pure allicin in liquid culture tubes containing full nutrient medium; […] The effects of allicin on Trichomonas vaginalis was tested in liquid cultures, and the viability of the trophozoites after exposure to different concentrations of allicin was determined by the methylene blue vital dye exclusion as previously described (Kiernan, 1974). […] Aliquotes were taken following incubation of 24 hours and the number of trophozoites was counted using a hemacytometer.

[4] = kept at cold temperatures, pH around 6; cited from earlier work
[5] = tested on: Trichoderma hyphae; experiment: Antifungal activity of the two-filter delivery system on agar plates (halo of inhibition); assay type: cell-based; details: for inhibition of fungal growth (halo around filter): filters placed 6 h after seeding 5×10^6 spores, 28° C., overnight incubation, FIG. 3A; for inhibition of fungal growth (halo around filter), mature growth: filters placed after 24 hours incubation, further 16 h, FIG. 3B
Description: In this experiment, the effect of allicin released upon wetting of the two-filter delivery system on spores of Trichoderma hyphae was tested. In particular, four Petri dish plates containing nutrient agar for fungal growth were seeded with 5×10^6 spores of a test soil fungi (Trichoderma hyphae) and incubated at 28° C. […] Additional two plates in each of which a single glass fiber filter containing either the substrate or the enzyme were placed were used as controls and treated the same way. A fourth plate containing only the fungus served as the positive control, and a fifth plate without any fungus was used as the negative control.
A similar experiment was carried out with identical filters on Petri dish plates that contained a more mature Trichoderma hyphae growth (after 24 hours incubation from seeding of the same number of spores). The filters were placed as described above and the plates were incubated for another 16 h.

[6] = Storage stability of dry alliin/alliinase components and filters (potential to produce allicin); assay type: physicochemical; details: dry form at room temperature

Compound	outcome of infected toenails after treatment ([1]; 0.5 ml of 0.5 mg/ml allicin solution (citrate buffer pH 6.0, 1 M urea) on cotton pad overnight, every night 14 days, then once a week, 10 volunteers)	tolerability: treatment not completed because of garlic smell ([1]; 10 volunteers)	color of the fungus in the nail ([1]; by the third day of the treatment)	time toenails remained fungus free ([1]; in some cases)	color of the emerging new nail ([1]; within two weeks)	killing of microorganisms ([2]; all experiments, irrespective of type of microorganism, FIGS. 4-5 and Table 1)	LD50 [2]	LD50 ([2]; as μM allicin)	Trophozoites (×10^4) ([3]; allicin 5 μg/ml)	Trophozoites (×10^4) ([3]; allicin 10 μg/ml)	Trophozoites (×10^4) ([3]; allicin 15 μg/ml)	Trophozoites (×10^4) ([3]; allicin 25 μg/ml)	degradation rate [4]	inhibition of fungal growth (halo around filter) [5]	inhibition of fungal growth (halo around filter), mature growth [5]	preservation of potential for producing allicin [6]
C=CCS[S+]([O-])CC=C (stereo not drawn) [allicin, diallyl thiosulfinate]	eight individuals had a remarkably healthy regeneration of their toenails	Two individuals did not complete the treatment	turned from dark green to yellowish white	over 2 years	resumed its natural color	effective killing	8 to 15 µg/mL	20 to 50 µM	48 ×10^4	45 ×10^4	8 ×10^4	3 ×10^4	8 %/month	–	–	–
alliin	–	–	–	–	–	–	–	–	–	–	–	–	–	No such halos were seen	such halo is not visible	–
alliinase	–	–	–	–	–	–	–	–	–	–	–	–	–	No such halos were seen	such halo is not visible	preserved their potential for producing allicin for several months

Source: patent US20110027341A1, “DEVICE FOR IN SITU PRODUCTION AND TOPICAL ADMINISTRATION OF ALLICIN” (YEDA RESEARCH AND DEVELOPMENT CO., LTD. at the Weizmann …, priority 2008, published 2011)
